Assay results: patent US20130090371A1, “METHODS AND COMPOSITIONS FOR INHIBITION OF BETA2-ADRENERGIC RECEPTOR DEGRADATION” (PRESIDENT AND FELLOWS OF HARVARD COLLEGE, priority 2010, published 2013)
d = 2'-deoxy (DNA)

Legend:
[1] = tested on: cell surface β2AR; experiment: Flowcytometry of cell surface β2AR in 293.β2AR* (recycle-deficient FLAG-β2AR, β2ARt) cells; assay type: cell-based, human
Procedure: (§1) Cell Culture, Transfection and Drug Treatments. […] Transfection of DNA into 293T cells was using FuGene 6 reagent (Roche) according to manufacturer's instruction. […] FDPS-specific siRNA (sense [NT], antisense [NT]) was from Sigma-Aldrich and the non-targeting Scrambled siRNA was from Thermo Scientific. […] Cells were washed with PBS and incubated with diluted TrypLE Express Enzyme (Invitrogen) (1:10 dilutio in PBS) for exactly 1 min at room temperature followed by adding regular medium immediately. […] Then cells were washed again and passed through cell strainers to remove cell clumps before being sorted on a FACS Aria multicolor high speed sorter (Becton Dickinson). During FACS analysis, the population of single cell was gated to measured FITC (green) signal. Background of auto-fluorescence was identified by plotting FITC with PE (red) or SSC (side scatter) signal. FITC-positive cells were collected in calcium and magnesium-free PBS with 20% FBS. Collected cells were cultured for repeating FACS sorting. […] The population of PI-negative single cell was gated to measured FITC signal.

[2] = tested on: cell surface β2AR; experiment: Flowcytometry of cell surface β2AR in 293.β2AR^WT cells; assay type: cell-based, human
Procedure: as §1

[3] = tested on: cellular cholesterol; experiment: Cellular cholesterol measurement in 293.β2AR* cells; assay type: cell-based, human
Procedure: Error bars represented the standard deviations of replicates.
Cellular cholesterol measurement. 1×10^6 cells were cultured in each well of 6-well plates in DMEM containing 10% FBS for 3 d until fully confluent. Then drug treatments were performed in either DMEM containing 10% FBS or Opti-MEM without serum in duplicates. Cells were transferred to microcentrifuge tubes, washed twice with ice-cold PBS. Total lipids were extracted by resuspending and lysing cells in 300 μL of Chloroform: Isopropanol: Triton X-100 (7:11:0.1). The organic phase was collected after centrifugation at 12,000 rpm for 10 min and then evaporated at 50° C. for 3-4 h. Lipids were resuspend in 200 μL of Cholesterol Reaction buffer included in a commercial cholesterol measurement kit (Invitrogen) by votexing. Cholesterol was measured by the cholesterol oxidase method according to the manufacturer's directions. 2 or 4 measurements were taken for each replicate sample.

[4] = tested on: FDPS; experiment: Real-time RT-PCR of FDPS mRNA in 293β2AR* cells; assay type: cell-based, human; details: normalized to β-Actin
Procedure: FIGS. 4A-4D show FDPS regulates the amount of Cell Surface β2AR in 293βAR* cells. […]. […] Cells were transduced with Lentivirus expressing FDPS-specific shRNA or empty vector, or transfected with FDPS-specific siRNA or non-targeting Scrambled (SCR) siRNA. The RNA levels were determined by real time RT-PCR and normalized to that of β-Actin. Error bars represented the standard deviations of replicates. Statistic analysis was using student's t-test. […]. MFI: Mean fluorescence intensity.
Real-Time RT-PCR. Total RNA was isolated by using TRIzol (Invitrogen) and further cleaned up by using RNeasy Mini kit (Qiagen) with DNase I digestion. cDNA was synthesized by using oligo-dT primers and SuperScript III (Invitrogen). Real-time PCR was performed on ABI Prism 7300 with SYBR Green (Qiagene). The FDPS was amplified with primers FDPS-1F (5′-TGACCGGCAAAATTGGCACTGACAT-3′) (SEQ ID NO: 20) and FDPS-1R (5′-CCTTCACCCGGGCCACTTTCTCA-3′) (SEQ ID NO: 21). […]. The β-Actin control was amplified with primers (Forward, 5′-AAG GCC AAC CGC GAG AAG-3′ (SEQ ID NO: 28) and Reverse, 5′-GGC GTA CAG GGA TAG CAC-3′ (SEQ ID NO: 29)).

[5] = target: T1, β2ARt (Homo sapiens, UniProt P07550); experiment: Immunoblot of agonist-induced β2AR degradation in 293β2AR* / β2ARt cells; assay type: cell-based; details: after 3 hours of agonist induction (10 μM isoproterenol); vs empty vector
T1 construct: a distally truncated form (after residue 385) of β2AR (β2ARt); expressed in transfected cells; host or cells: HEK293 (293.β2AR*)
Procedure: β2AR ubiquitination and degradation assays. Cells expressing […] or β2ARt were subjected to 10 μM ISO (Sigma) stimulation, lysed in 0.5% NP-40 lysis buffer and immunoblotted with anti-FLAG-HRP (Sigma). For β2AR ubiquitination, β2ARt or wt-β2AR expressing cells were first incubated with 10 μM alprenolol antagonist (Sigma) for 15 min (to reduce constitutive background ubiquitination), stimulated with 10 μM ISO and lysed in buffer supplemented with 10 mM N-ethylmaleimide (NEM; Sigma) to inhibit deubiquitinase activity. Anti-FLAG EZview beads (Sigma) used for the IP were subjected to three 10 min washes with lysis buffer and resuspended in 50 μl 2βLDS sample buffer (Invitrogen) containing 10% β-mercaptoethanol (Sigma) and analyzed by immunoblotting.

[6] = tested on: human airway smooth muscle cells; experiment: Optical Magnetic Twisting Cytometry (elastic modulus) of HASM cells; details: for decrease of stiffness compared to baseline: 1 mM isoproterenol, measured over 15 min
[7] = tested on: β2AR; experiment: Immunoblot of β2AR protein in human airway smooth muscle (HASM) cells; details: 20 μM isoproterenol for 2 d; vs non targeting shRNA
Procedure: Error bars represented the standard deviations; Student t-test * p<0.05, n=2. […] Indirect Immunofluorescence staining of β2AR and phase contract images are shown.
Three days after the inhibitor treatment cell lysates were collected and analyzed by immunoblotting. Three repeats were done with similar results.
Immunoblot analysis. 48 h post DNA transfection, cells were wash with PBS and lysed with NP-40 lysing buffer (50 mM Tris-HCl pH7.5, 150 mM NaCl, 0.5% Nonidet P-40) containing protease inhibitor cocktail (Roche). Protein samples were separated on NuPAGE 10% Bis-Tris gels (Invitrogen) and transferred to nitrocellulose membranes (Bio-Rad). Immunoblot signals were developed using SuperSignal West Pico Chemiluminescent Substrate (Pierce, Rockford, Ill., USA) and quantified by a Luminescence Imager or exposed to X-ray films.

[8] = tested on: CaMKK2; experiment: qRT-PCR of CaMKK2 mRNA in primary HASM cells; assay type: cell-based, human; details: 50 nM siRNA; three days after transfection
[9] = target: T2, NEDD4 E3 ubiquitin ligase (UniProt P46934-4 1-900, limits assumed); experiment: co-immunoprecipitation and immunoblot (FIG. 8B)
T2 construct: also called ubiquitin ligase NEDD4
T2 sequence (looked up): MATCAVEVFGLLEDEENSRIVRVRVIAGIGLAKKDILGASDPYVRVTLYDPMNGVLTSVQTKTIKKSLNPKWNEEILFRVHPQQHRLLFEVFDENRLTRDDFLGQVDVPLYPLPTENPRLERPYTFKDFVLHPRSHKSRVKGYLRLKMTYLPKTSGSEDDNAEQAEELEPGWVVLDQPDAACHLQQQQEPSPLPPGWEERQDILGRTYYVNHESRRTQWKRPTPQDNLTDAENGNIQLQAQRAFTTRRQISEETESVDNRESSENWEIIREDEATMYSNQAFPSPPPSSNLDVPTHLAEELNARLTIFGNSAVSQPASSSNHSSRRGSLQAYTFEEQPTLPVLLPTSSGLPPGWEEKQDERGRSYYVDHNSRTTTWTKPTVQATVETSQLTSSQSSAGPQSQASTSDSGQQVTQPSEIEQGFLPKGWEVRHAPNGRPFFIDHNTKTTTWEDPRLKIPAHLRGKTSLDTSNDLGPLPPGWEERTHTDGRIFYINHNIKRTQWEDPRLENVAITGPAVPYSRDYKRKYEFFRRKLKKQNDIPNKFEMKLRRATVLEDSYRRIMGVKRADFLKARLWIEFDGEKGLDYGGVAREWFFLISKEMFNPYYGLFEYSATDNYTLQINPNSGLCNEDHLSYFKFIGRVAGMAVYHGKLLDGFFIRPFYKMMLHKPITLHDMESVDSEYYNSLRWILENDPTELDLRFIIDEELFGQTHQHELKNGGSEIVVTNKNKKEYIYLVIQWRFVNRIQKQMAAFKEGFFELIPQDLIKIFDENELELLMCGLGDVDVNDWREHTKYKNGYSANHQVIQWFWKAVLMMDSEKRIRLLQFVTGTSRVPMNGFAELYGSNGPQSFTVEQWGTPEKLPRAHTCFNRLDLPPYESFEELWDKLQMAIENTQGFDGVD

With `NCCCC(O)(P(=O)([O-])O)P(=O)(O)O.[Na+]` [alendronate, (4-amino-1-hydroxybutylidene)bisphosphonic acid monosodium salt] the “cell surface β2AR levels after agonist induction” value ([1]; 50 or 500 μM for 1 d, then 10 μM isoproterenol 3 h) was “dose dependent increase of the cell surface β2AR levels”, the “surface β2AR levels prior and post agonist induction” value ([1]; treatment for 2 days, data not shown) was “increase the surface β2AR levels” and the “amount of cell surface β2AR” value ([2]; 50 μM alendronate alone for 1 d) was “increased the amount of cell surface β2AR”. For the same molecule, the “cell surface β2AR levels before and after agonist induction” value ([2]; 50 μM for 1 d, then 10 μM isoproterenol 1 h) was “increased the cell surface β2AR levels both before and after agonist induction”, the “effect on cellular cholesterol” value ([3]; 50 μM ALN or 100 μg/mL pravastatin for 1 d, serum containing medium) was “neither alendronate nor pravastatin could significantly lower the cellular cholesterol” and the “effect on cellular cholesterol” value ([3]; 50 μM for 1 d, serum-free medium) was “not sufficient to lower cellular cholesterol”.

In the case of “FDPS-specific siRNA: sense 5′-cca ugu aca ugg cag gaa u(dT)(dT)-3′, antisense 5′-auu ccu gcc aug uac aug g(dT)(dT)-3′, from Sigma-Aldrich (sense CCAUGUACAUGGCAGGAAU; antisense AUUCCUGCCAUGUACAUGG; RNA, 3' dTdT, backbone not given here)”, the “increase in cell surface β2AR” value ([1]; both prior and post agonist induction (10 μM isoproterenol 1 or 3 h), vs non-targeting control siRNA) is reported as “about 2 fold” and the “down regulation of FDPS mRNA level (knockdown efficiency)” value [4] is reported as “about 80%”.

With “FDPS-specific shRNA: lentiviral shRNA clone, hairpin sequence 5′-AGCGGAGAAAGTGACCTAGAGATTG-3′ (SEQ ID NO: 20) (AGCGGAGAAAGTGACCTAGAGATTG)” the “amount of β2AR by immunoblot” value [5] was “increased amount of β2AR”, the “down regulation of FDPS mRNA level (knockdown efficiency)” value [4] was “about 10%” and the “baseline elastic modulus (t=0)” value ([6]; FDPS knockdown cells vs control cells) was “approximately two times lower”. The “total amount of β2AR” value [7] was “upregulation of β2AR”.

With Methyl-beta-cyclodextrin [MbCD] the “cell surface β2AR post agonist induction” value ([1]; 1 or 2 mM for 1 h, then 10 μM isoproterenol 1 h) was “increased amount of cell surface β2AR post agonist induction” and the cellular cholesterol lowering ([3]; 2 mM for 1 h, medium containing 10% FBS) was 35.3%.

With `CC(C)NCC(O)c1ccc(O)c(O)c1` (stereo not shown) [isoproterenol] the “decrease of stiffness compared to baseline” value ([6]; FDPS knockdown (sample) cells) was roughly 15% and the “decrease of stiffness compared to baseline” value ([6]; control cells) was roughly 40%.

“CaMKK2 siRNA #2: 5′ UUGACGACACCAUAGGAGCdTdT (SEQ ID NO: 33), MISSION siRNA from Sigma (UUGACGACACCAUAGGAGCTT; further chemistry not given here)” was tested, and the “knockdown of CaMKK2 expression” value [8] was “about 90%”.

With “CaMKK2 siRNA #1: 5′ GCUCCUAUGGUGUCGUCAAdTdT (SEQ ID NO: 32), MISSION siRNA from Sigma (GCUCCUAUGGUGUCGUCAATT; further chemistry not given here)” the “knockdown of CaMKK2 expression” value [8] was “about 90%”.

“ARRDC3-specific shRNA: shRNA sequence CCACAGACACCACTCGCTACCTCATT (SEQ ID NO: 24)” was tested, and the “higher level of cell surface receptor after agonist stimulation” value ([1]; β2ARt cells, vs non-targeting shRNA) was greater than 20%.

For `CC(C)CCC[C@@H](C)[C@H]1CC[C@H]2[C@@H]3CC=C4C[C@@H](O)CC[C@]4(C)[C@H]3CC[C@]12C` [cholesterol], the “effect on FDPS blockade of β2AR down-regulation” value ([2]; cholesterol supplementation (FIG. 6A)) was “reverses the effects of FDPS blockade”.

In the case of “AA496068 EST shRNA: shRNA TCTGCATTTCCTGTAATTTTGCATGC (SEQ ID NO: 2) targeting EST AA496068 upstream of latrophilin 2”, the “cell surface β2AR, mean fluorescence intensity” value ([1]; β2ARt-expressing 293 cells, vehicle or ISO 16 h, vs non-targeting shRNA) is reported as “An increase in the mean fluorescence intensity values”.

In the case of `CC[C@H](C)C(=O)O[C@H]1C[C@H](O)C=C2C=C[C@H](C)[C@H](CC[C@@H](O)C[C@@H](O)CC(=O)O)[C@H]21` [pravastatin], the “effect on amount of cell surface β2AR” value ([1]; 100 μg/mL for 1 d) is reported as “no significant effect”, the “effect on amount of cell surface β2AR” value ([2]; 100 μg/mL for 1 d) is reported as “no significant effect” and the cellular cholesterol lowering ([3]; 1 μg/mL for 1 d, serum-free medium) is reported as 19.9%.

B1: ARRDC3ΔΔPPXY (double PPXY motif mutant of ARRDC3) (other, human, UniProt Q96B67 1-414, looked up)
chain: MVLGKVKSLTISFDCLNDSNVPVYSSGDTVSGRVNLEVTGEIRVKSLKIHARGHAKVRWTESRNAGSNTAYTQNYTEEVEYFNHKDILIGHERDDDNSEEGFHTIHSGRHEYAFSFELPQTPLATSFEGRHGSVRYWVKAELHRPWLLPVKLKKEFTVFEHIDINTPSLLSPQAGTKEKTLCCWFCTSGPISLSAKIERKGYTPGESIQIFAEIENCSSRMVVPKAAIYQTQAFYAKGKMKEVKQLVANLRGESLSSGKTETWNGKLLKIPPVSPSILDCSIIRVEYSLMVYVDIPGAMDLFLNLPLVIGTIPLHPFGSRTSSVSSQCSMNMNWLSLSLPERPEAAASAAEVVTEEQRRNNLAPVSACDDFERALQGPLFAYIQEFRFLPAALASEIDPNPDQSADDRPSCPSR
notes: also called double PPXY ARRDC3 mutant; double PPXY mutant
B1: no binding [9].
